From patent US10159672B2 (PARION SCIENCES, INC., priority 2011, dated 2018)

Tests used:
[1] = tested on: ExLac Rats; assay: Phenol red thread (PRT) measurement of tear output in ExLac rats; assay type: in vivo, Sprague Dawley
Description: Procedures for Phenol Red Thread (PRT) Measurement of Tear Output:
Animal Species/Strain: Rats, Sprague Dawley (SD); Lacrimal gland surgically removed (ExLac).
Animal Number/Sex: 3-4 females/group
Test Article Formulation: All stock solutions for each dosing arm were prepared no more than 48 hours prior to the start of the study. The concentration of ENaC blockers in all test article solutions were confirmed by spectrophotometry.
Test Article Administration: Both the ipsilateral and contralateral eyes were dosed with 5 […]1 of test article solution.
Phenol Red Thread (PRT) Test: Tear production was measured using the ZoneQuick cotton thread with impregnated phenol red dye. The folded end of the thread was held in the lateral-ventral conjunctival cul-de-sac for 10 seconds. The length of tear wicking onto the thread was determined by measuring the length of the thread that changes color from yellow to red. Use of a stereomicroscope was assist in the accurate measurement (recorded in millimeters) of the wicking/color change.

[2] = tested on: New Zealand White rabbits; assay: Acute non-GLP ocular toxicity / tolerability study; assay type: in vivo
Description: • An Acute Non-GLP Ocular Toxicity Study In New Zealand White Rabbits With P-1046
The purpose of this study was to evaluate the ocular tolerability and systemic exposure of P-1046, an inhibitor of the epithelial sodium channel (ENaC), when administered as a topical instillation to New Zealand white rabbits.
The test article (P-1046) were supplied as a light yellow white powder. The test articles were then prepared into dosing solutions for topical ocular application. Twenty-eight experimentally naïve male New Zealand White rabbits, approximately 4 months old at the outset of the study and weighing 2.6-3.1 kilograms at randomization were assigned to treatment groups as shown in the table below:
Animals were administered 50 μl of the test or control vehicle onto the globe of right eye and 50 μl of saline onto the globe of the left eye eight times (approximately one hour between each dose) in Groups 1 and 6 and four times (approximately two hours between each dose) in Group 7. Mortality and clinical observations were recorded daily. Body weights were recorded at randomization/selection and prior to sacrifice on Day 2. For blink rate assessment, eye blinks in the right eye only were counted for 3 minutes prior to treatment initiation and following all doses. Instances of wincing and pawing at the eyes during the 3-minute eye blink observation period were recorded as clinical observations. Food consumption was recorded daily. Eyes were scored according to Draize prior to treatment, following each dose and on Day 2 at approximately 24 hours post-dose. Blood for toxicokinetic evaluation was collected from animals in Group 2-7 at pre-dose, 30 minutes after the middle dose (4th dose in groups 3, 5, and 6; 2nd dose in groups 2, 4, and 7) and at 30, 60, 120 and 240 minutes following the final dose on Day 1. Blood samples for evaluation of serum chemistry parameters were collected prior to treatment initiation and at 120 and 240 min following the final dose. Urine samples were collected over a 4-hour period following the final dose. All animals were sacrificed following completion of study procedures on Day 2.

[3] = Human plasma stability; assay type: in vitro ADME; conditions: over 4 hours
[4] = tested on: Human Bronchial Epithelial Cells; assay: Absorption rate across human bronchial epithelial cells; assay type: in vitro ADME; conditions: n=3
Description: Bronchial cells (dog, human, sheep, or rodent cells) are seeded at a density of 0.25×10^6/cm^2 on a porous Transwell-Col collagen-coated membrane with a growth area of 1.13 cm^2 grown at an air-liquid interface in hormonally defined media that promotes a polarized epithelium. From 12 to 20 days after development of an air-liquid interface (ALI) the cultures are expected to be >90% ciliated, and mucins will accumulate on the cells. To ensure the integrity of primary airway epithelial cell preparations, the transepithelial resistance (R1) and transepithelial potential differences (PD), which are indicators of the integrity of polarized nature of the culture, are measured. […] Concentrations are determined by measuring intrinsic fluorescence of each sodium channel blocker using a Fluorocount Microplate Flourometer or HPLC. Quantitative analysis employs a standard curve generated from authentic reference standard materials of known concentration and purity. […]
In the first series of assays, the interaction of test compounds in KBR as an “ASL” stimulant are applied to the apical surface of human airway epithelial cells grown in the T-Col insert system. […] In instances where the fluorescence properties of the test molecule are not adequate for such characterizations, radiolabeled compounds are used for these assays. […]

[5] = 10 mM x 8 doses and 30 mM x 4 doses, topical ocular, rabbit

CN(C)C(=O)[C@H](CCCCNC(=N)N)NC(=O)[C@H](CCc1ccc(CCCCNC(=N)NC(=O)c2nc(Cl)c(N)nc2N)cc1)N(C)C [Compound I, 3,5-diamino-6-chloro-N-(N-(4-(4-((S)-3-(dimethylamino)-4-((S)-1-(dimethylamino)-6-guanidino-1-oxohexan-2-ylamino)-4-oxobutyl)phenyl)butyl)carbamimidoyl)pyrazine-2-carboxamide]
Tear output (PRT) in ExLac rats, duration of effect ([1]; 2 hours post-dose, all dose groups except 0.1 mM): still observed | Tear output (PRT) in ExLac rats ([1]; all concentrations, 15 minutes post-dose, n=4): increases tear output in ExLac rats 15 minutes post-dose at or slightly below tear output values observed for normal rats | Tear output, baseline corrected data, significance vs vehicle ([1]; single 10 mM dose, baseline corrected, p <0.03): statistically significant at all post-dose time points | Tear volume relative to vehicle controls ([1]; single 10 mM dose, n=3): increased tear volume relative to vehicle controls | Tear output, raw data, significance vs vehicle ([1]; single 10 mM dose, raw PRT values): not significant beyond 60 minutes | Appearance of eyes on Day 2 ([2]; 10 mM group): appeared normal | Average blink rate [2, 5]: only slight increases at some time points, similarly to vehicle treated animals | Cumulative Draize scores (right eye) [2, 5]: only slight increases in Draize scoring which are not greater than those observed for vehicle treated animals | Post-dose conjunctival redness, severity and incidence ([2]; 10 and 30 mM): comparable to the vehicle controls | Stinging on instillation ([2]; 10 and 30 mM): do not cause stinging | Ocular tolerability ([2]; 10 and 30 mM formulations): well tolerated | Human Plasma Stability [3]: No metabolism detected | Absorption Rate Across Human Bronchial Epithelial Cells [4]: 0.12±0.05 nM/cm^2/min
